Measurements published in PubChem BioAssay (NCI).
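Each compound was tested at five concentrations against cells in 96-well plates for 48 hours. The concentration for 50% growth inhibition is given as GI50. TGI: concentration producing complete growth inhibition.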

Columns and labels:
Assay in all cases: inhibition of tumour cell growth, NCI panel, 48 h
NCI-H460 lung = tested on: NCI-H460 lung
OVCAR-5 ovarian = tested on: OVCAR-5 ovarian
KM12 colon = tested on: KM12 colon
A498 renal = tested on: A498 renal
UACC-257 melanoma = tested on: UACC-257 melanoma
SR leukemia = tested on: SR leukemia
MDA-MB-231 breast = tested on: MDA-MB-231 breast
NCI-H226 lung = tested on: NCI-H226 lung
SF-295 CNS = tested on: SF-295 CNS
COLO 205 colon = tested on: COLO 205 colon

SMILES | TGI (NCI-H460 lung) | TGI (OVCAR-5 ovarian) | TGI (KM12 colon) | TGI (A498 renal) | TGI (UACC-257 melanoma) | TGI (SR leukemia) | GI50 (MDA-MB-231 breast) | TGI (MDA-MB-231 breast) | GI50 (NCI-H460 lung) | GI50 (OVCAR-5 ovarian) | GI50 (NCI-H226 lung) | TGI (NCI-H226 lung) | GI50 (KM12 colon) | GI50 (SF-295 CNS) | TGI (SF-295 CNS) | GI50 (A498 renal) | GI50 (COLO 205 colon) | TGI (COLO 205 colon) | GI50 (UACC-257 melanoma) | GI50 (SR leukemia)
Clc1ccccc1/C=C/c1cscn1 | > 100 µM | > 100 µM | > 100 µM | > 100 µM | > 100 µM | > 100 µM |  |  |  |  |  |  |  |  |  |  |  |  |  | 
O=S1(=O)N(CCNc2nccc(-c3c(-c4cccc(O)c4)nc4sccn34)n2)CCN1Cc1ccccc1 | 17.1 µM | > 50 µM | 15.3 µM | 4.35 µM | 43.1 µM | > 50 µM | 3.06 µM | 26.4 µM | 3.45 µM | 29.8 µM | 7.45 µM | 20.8 µM | 5.44 µM | 7.57 µM | 20.3 µM | 1.78 µM | 0.621 µM | 32.3 µM | 0.996 µM | 9.76 µM
CCOC(=O)CN=C1NNS(=O)(=O)c2ccccc21 | > 100 µM | > 100 µM | > 100 µM | > 100 µM | > 100 µM | > 100 µM |  | > 100 µM |  |  |  | > 100 µM |  |  | > 100 µM |  |  | > 100 µM |  | 
O=C1NN(C2=NNC3(C(=O)N2)c2ccccc2-c2ccccc23)C(c2ccccc2)=N/C1=C/c1ccc(O)cc1 | > 150 µg/mL | > 150 µg/mL | 57.6 µg/mL |  | > 150 µg/mL | > 150 µg/mL | 26.2 µg/mL | 71.7 µg/mL | 57.6 µg/mL | > 150 µg/mL |  |  | 28.6 µg/mL | 56.9 µg/mL | > 150 µg/mL |  | > 150 µg/mL | > 150 µg/mL | 113 µg/mL | 59.7 µg/mL
COc1cc(/C=C2\CCCC3=C2NC(C)=NC3c2cc(OC)c(OC)c(OC)c2)cc(OC)c1OC (centres undefined) |  | > 100 µM |  |  |  | 7.66 µM | 3.01 µM | > 100 µM |  | 3.54 µM |  |  |  |  |  |  |  |  |  | 0.436 µM
NCCCCC(N)C(=O)NCCNc1ccc(NCCNC(=O)C(N)CCCCN)c2c1C(=O)c1ccccc1C2=O (centres undefined) | > 100 µM | > 100 µM | > 100 µM | > 100 µM | > 100 µM | > 100 µM |  | > 100 µM |  |  |  | > 100 µM |  |  | > 100 µM |  |  | > 100 µM |  | 
C=CC1(C)CCC2=C(CCC3C(C)(C(=O)OC)CCCC23C)C1=O (centres undefined) | 36.5 µM | 29.5 µM | 31.5 µM | 28.4 µM | 55.9 µM | 42 µM |  |  |  |  |  | 40.2 µM |  |  | 72.5 µM |  |  | 34.6 µM |  | 
O=C(N/N=C\c1cccc(O)c1)c1ccncc1 | > 100 µM | > 100 µM | > 100 µM | > 100 µM | > 100 µM | > 100 µM |  | > 100 µM |  |  |  |  |  |  | > 100 µM |  |  |  |  | 
Cn1c(=O)c2[nH]c(CCCCC(=O)O)nc2n(C)c1=O | > 100 µM | > 100 µM | > 100 µM | > 100 µM | > 100 µM |  |  | > 100 µM |  |  |  | > 100 µM |  |  | > 100 µM |  |  |  |  | 
Cc1cc(O)c(C(C)(C)C)cc1Sc1cc(C(C)(C)C)c(O)cc1C | 7.33 µM | 4 µM | 5.01 µM | 6.29 µM | 6.89 µM | 7.23 µM | 2.16 µM | 5.06 µM | 2.89 µM | 1.93 µM |  |  | 2.24 µM | 2.32 µM | 5.61 µM | 2.21 µM | 2.83 µM | 7.24 µM | 2.28 µM | 1.89 µM
CCOC(=O)C(O)(NC(=O)c1ccc(F)cc1)C(F)(F)F (centres undefined) |  | > 100 µM | > 100 µM |  | > 100 µM | > 100 µM |  | > 100 µM |  |  |  | > 100 µM |  |  | > 100 µM |  |  | > 100 µM |  | 
